Source: patent US7723323B2, “Pharmaceutical use of fused 1,2,4-triazoles” (High Point Pharmaceuticals, LLC, priority 2003, dated 2010)
pIC50: −log10 of the molar value.

Molecular target: T1, h-11βHSD1 (Homo sapiens, UniProt P28845)
T1 construct: made in house; host or cells: yeast (extract of transformed yeast)
Experiment: 11βHSD1 enzyme assay (SPA)
Format: biochemical
Conditions: extract of yeast transformed with h-11βHSD1; 120 nM 3H-cortisone, 4 mM β-NADPH, 60 min at 30° C.
Description: ^3H-cortisone and anti-rabbit Ig coated scintillation proximity assay (SPA) beads were purchased from Amersham Pharmacia Biotech, β-NADPH was from Sigma and rabbit anti-cortisol antibodies were from Fitzgerald. An extract of yeast transformed with h-11βHSD1 (Hult et al., FEBS Lett. 441, 25 (1998)) was used as the source of enzyme. The test compounds were dissolved in DMSO (10 mM). All dilutions were performed in a buffer containing 50 mM TRIS-HCl (Sigma Chemical Co), 4 mM EDTA (Sigma Chemical Co), 0.1% BSA (Sigma Chemical Co), 0.01% Tween-20 (Sigma Chemical Co) and 0.005% bacitracin (Novo Nordisk A/S), pH=7.4. Optiplate 96 wells plates were supplied by Packard. The amount of ^3H-cortisol bound to the SPA beads was measured on TopCount NXT, Packard.
h-11βHSD1, 120 nM ^3H-cortisone, 4 mM β-NADPH, antibody (1:200), serial dilutions of test compound and SPA particles (2 mg/well) were added to the wells. The reaction was initiated by mixing the different components and was allowed to proceed under shaking for 60 min at 30° C. […] Data was analysed using GraphPad Prism software.

T1 sequence (P28845 whole entry): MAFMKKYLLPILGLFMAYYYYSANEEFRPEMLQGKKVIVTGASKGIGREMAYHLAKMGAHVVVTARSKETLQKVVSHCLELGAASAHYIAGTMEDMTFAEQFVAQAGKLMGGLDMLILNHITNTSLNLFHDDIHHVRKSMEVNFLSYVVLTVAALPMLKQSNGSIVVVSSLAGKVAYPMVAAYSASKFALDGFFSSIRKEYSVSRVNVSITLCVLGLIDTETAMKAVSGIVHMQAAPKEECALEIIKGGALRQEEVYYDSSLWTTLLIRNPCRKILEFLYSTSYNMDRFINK

For `Brc1ccccc1-c1nnc2n1CCCCC2` [Example 1, 3-(2-Bromo-phenyl)-6,7,8,9-tetrahydro-5H-[1,2,4]triazolo[4,3-a]azepine], the pIC50 was 6.64.

With `c1ccc(OCc2ccccc2-c2nnc3n2CCCCC3)cc1` [Example 1-a] the pIC50 was 6.96.
